Patent US8735414B2 (priority 2009, dated 2014)

The molecules below were run on bicistronic HCV replicon (replicon RNA, GenBank Accession No. AJ242654) (assay: HCV Replicon Assay). Conditions: Hepatitis C virus, 72 h, read-out: Replicon IC50.
Assay type: cell-based
For `C[C@@H](NS(=O)(=O)c1ccc(-c2c(C#N)c3cc(Cl)ccc3n2C2CCCC2)nc1)C(F)(F)F` [compound 224, 6-(5-chloro-3-cyano-1-cyclopentyl-1H-indol-2-yl)-N-[(2R)-1,1,1-trifluoropropan-2-yl]pyridine-3-sulfonamide], the IC50 was less than 500 nM. `Cc1ccc2c(C#N)c(-c3ccc(S(=O)(=O)NC(CF)CF)cn3)n(C3CCC3)c2c1` [compound 82, 6-(3-cyano-1-cyclobutyl-6-methyl-1H-indol-2-yl)-N-(1,3-difluoropropan-2-yl)pyridine-3-sulfonamide] showed an IC50 of less than 500 nM. `Cc1cc2c(cc1F)c(C#N)c(-c1ccc(S(=O)(=O)N[C@@H](C)C(F)(F)F)cn1)n2-c1ncco1` [compound 1073, 6-[3-cyano-5-fluoro-6-methyl-1-(1,3-oxazol-2-yl)-1H-indol-2-yl]-N-[(2S)-1,1,1-trifluoropropan-2-yl]pyridine-3-sulfonamide] was tested, and the IC50 was less than 500 nM. `COC(=O)c1c(-c2ccc(S(=O)(=O)NC(C)(C)C(F)(F)F)cn2)n(C2CCCC2)c2cc(C)c(F)cc12` [compound 754, methyl 1-cyclopentyl-5-fluoro-6-methyl-2-{5-[(1,1,1-trifluoro-2-methylpropan-2-yl)sulfamoyl]pyridin-2-yl}-1H-indole-3-carboxylate] was tested, and the IC50 was less than 500 nM. Work on `C[C@H](NS(=O)(=O)c1ccc(-c2c(C#N)c3ccc(Cl)cc3n2C2CCC2)nc1)C1CC1` [compound 154, 6-(6-chloro-3-cyano-1-cyclobutyl-1H-indol-2-yl)-N-[(1S)-1-cyclopropylethyl]pyridine-3-sulfonamide] yielded an IC50 of less than 500 nM. Molecule `Cc1ccc2c(C#N)c(-c3ncc(S(=O)(=O)N[C@@H](C)C4CC4)cn3)n(C3CCC3)c2c1` [compound 202, 2-(3-cyano-1-cyclobutyl-6-methyl-1H-indol-2-yl)-N-[(1S)-1-cyclopropylethyl]pyrimidine-5-sulfonamide] has an IC50 of less than 500 nM. `C[C@H](NS(=O)(=O)c1ccc(-c2c(C#N)c3ccc(C4CC4)cc3n2C2CCCC2)nc1)C1CC1` [compound 433, 6-(3-cyano-1-cyclopentyl-6-cyclopropyl-1H-indol-2-yl)-N-[(1S)-1-cyclopropylethyl]pyridine-3-sulfonamide] showed an IC50 of less than 500 nM. Molecule `CC(C)NS(=O)(=O)c1ccc(-c2c(C#N)c3ccc(C4CC4)cc3n2C2CC2)nc1` [compound 109, 6-(3-cyano-1,6-dicyclopropyl-1H-indol-2-yl)-N-(propan-2-yl)pyridine-3-sulfonamide] has an IC50 of less than 500 nM. In the case of `Cc1c(F)cc2c(C#N)c(-c3ncc(S(=O)(=O)NC(CF)CF)cn3)n(C3CCC3)c2c1F` [compound 668, 2-(3-cyano-1-cyclobutyl-5,7-difluoro-6-methyl-1H-indol-2-yl)-N-(1,3-difluoropropan-2-yl)pyrimidine-5-sulfonamide], the IC50 is reported as less than 500 nM. Molecule `N#Cc1c(-c2ccc(S(=O)(=O)NC3CC(F)(F)C3)cn2)n(C2CCC2)c2ccc(Cl)cc12` [compound 243, 6-(5-chloro-3-cyano-1-cyclobutyl-1H-indol-2-yl)-N-(3,3-difluorocyclobutyl)pyridine-3-sulfonamide] has an IC50 of 500 to 2000 nM. For `CCc1cc2c(cc1F)c(C(N)=O)c(-c1ccc(S(=O)(=O)N[C@@H](C)C(F)(F)F)cn1)n2-c1ccc(Cl)cn1` [compound 1043, 1-(5-chloropyridin-2-yl)-6-ethyl-5-fluoro-2-(5-{[(2S)-1,1,1-trifluoropropan-2-yl]sulfamoyl}pyridin-2-yl)-1H-indole-3-carboxamide], the IC50 was less than 500 nM. Work on `Cc1cnc(-n2c(-c3ccc(S(=O)(=O)N[C@@H](C)C(F)(F)F)cn3)c(C#N)c3cc(F)c(C)cc32)cn1` [compound 865, 6-[3-cyano-5-fluoro-6-methyl-1-(5-methylpyrazin-2-yl)-1H-indol-2-yl]-N-[(2S)-1,1,1-trifluoropropan-2-yl]pyridine-3-sulfonamide] yielded an IC50 of less than 500 nM. Work on `CC(C)NS(=O)(=O)c1cnc(-c2c(C#N)c3ccc(Cl)cc3n2C(C)C)nc1` [compound 156, 2-[6-chloro-3-cyano-1-(propan-2-yl)-1H-indol-2-yl]-N-(propan-2-yl)pyrimidine-5-sulfonamide] yielded an IC50 of 500 to 2000 nM. Molecule `C=Cc1cc2c(cc1F)c(C#N)c(-c1ccc(S(=O)(=O)N[C@@H](C)C(F)(F)F)cn1)n2-c1ncccn1` [compound 908, 6-[3-cyano-6-ethenyl-5-fluoro-1-(pyrimidin-2-yl)-1H-indol-2-yl]-N-[(2S)-1,1,1-trifluoropropan-2-yl]pyridine-3-sulfonamide] has an IC50 of less than 500 nM. Work on `C[C@H](NS(=O)(=O)c1ccc(-c2c(C#N)c3cc(F)c(OC(F)F)cc3n2C2CCC2)nc1)C(F)(F)F` [compound 549, 6-[3-cyano-1-cyclobutyl-6-(difluoromethoxy)-5-fluoro-1H-indol-2-yl]-N-[(2S)-1,1,1-trifluoropropan-2-yl]pyridine-3-sulfonamide] yielded an IC50 of less than 500 nM. Molecule `C[C@H](NS(=O)(=O)c1ccc(-c2c(C#N)c3ccc(CF)cc3n2C2CCC2)nc1)C1CC1` [compound 317, 6-[3-cyano-1-cyclobutyl-6-(fluoromethyl)-1H-indol-2-yl]-N-[(1S)-1-cyclopropylethyl]pyridine-3-sulfonamide] has an IC50 of less than 500 nM. `CC(C)n1c(-c2ncc(S(=O)(=O)NC(CF)CF)cn2)c(C#N)c2ccc(Cl)cc21` [compound 257, 2-[6-chloro-3-cyano-1-(propan-2-yl)-1H-indol-2-yl]-N-(1,3-difluoropropan-2-yl)pyrimidine-5-sulfonamide] was tested, and the IC50 was 500 to 2000 nM. `[2H]C([2H])(C)c1cc2c(cc1F)c(C#N)c(-c1ccc(S(=O)(=O)N[C@@]([2H])(C)C(F)(F)F)cn1)n2-c1ncccn1` [compound 1079, 6-{3-cyano-6-[(1,1-dideuterium)ethyl]-5-fluoro-1-(pyrimidin-2-yl)-1H-indol-2-yl}-N-[(2S)-1,1,1-trifluoro(2-deuterium)propan-2-yl]pyridine-3-sulfonamide] showed an IC50 of less than 500 nM. `Cc1cc2c(cc1F)c(C#N)c(-c1cc(C)c(S(=O)(=O)N[C@@H](C)C(F)(F)F)cn1)n2-c1ncccn1` [compound 853, 6-[3-cyano-5-fluoro-6-methyl-1-(pyrimidin-2-yl)-1H-indol-2-yl]-4-methyl-N-[(2S)-1,1,1-trifluoropropan-2-yl]pyridine-3-sulfonamide] showed an IC50 of less than 500 nM. For `Cc1cc2c(cc1F)c(C#N)c(-c1ccc(S(=O)(=O)NC(C)(C)C(F)(F)F)cn1)n2C1CCOCC1` [compound 750, 6-[3-cyano-5-fluoro-6-methyl-1-(tetrahydro-2H-pyran-4-yl)-1H-indol-2-yl]-N-(1,1,1-trifluoro-2-methylpropan-2-yl)pyridine-3-sulfonamide], the IC50 was less than 500 nM. In the case of `Cc1ccc2c(C#N)c(-c3ccc(S(=O)(=O)N[C@H](C)C(F)(F)F)cn3)n(-c3ccccn3)c2c1` [compound 671, 6-[3-cyano-6-methyl-1-(pyridin-2-yl)-1H-indol-2-yl]-N-[(2R)-1,1,1-trifluoropropan-2-yl]pyridine-3-sulfonamide], the IC50 is reported as less than 500 nM. `CCc1cc2c(cc1F)c(C#N)c(-c1ccc(S(=O)(=O)N[C@@H](C)C(F)(F)F)cn1)n2-c1ccc(C)cn1` [compound 931, 6-[3-cyano-6-ethyl-5-fluoro-1-(5-methylpyridin-2-yl)-1H-indol-2-yl]-N-[(2S)-1,1,1-trifluoropropan-2-yl]pyridine-3-sulfonamide] was tested, and the IC50 was less than 500 nM. `N#Cc1c(-c2ccc(S(=O)(=O)NC(CF)CF)cn2)n(C2CCC2)c2cc(CF)ccc12` [compound 318, 6-[3-cyano-1-cyclobutyl-6-(fluoromethyl)-1H-indol-2-yl]-N-(1,3-difluoropropan-2-yl)pyridine-3-sulfonamide] gave an IC50 of less than 500 nM. For `CCc1cc2c(cc1F)c(C#N)c(-c1ccc(S(=O)(=O)N[C@H](C)C(F)(F)F)cn1)n2-c1ncccn1` [compound 878, 6-[3-cyano-6-ethyl-5-fluoro-1-(pyrimidin-2-yl)-1H-indol-2-yl]-N-[(2R)-1,1,1-trifluoropropan-2-yl]pyridine-3-sulfonamide], the IC50 was less than 500 nM. For `CC(C)n1c(-c2ncc(S(=O)(=O)N[C@@H](C)C(F)(F)F)cn2)c(C#N)c2cc(Cl)ccc21` [compound 420, 2-[5-chloro-3-cyano-1-(propan-2-yl)-1H-indol-2-yl]-N-[(2S)-1,1,1-trifluoropropan-2-yl]pyrimidine-5-sulfonamide], the IC50 was 500 to 2000 nM. In the case of `COc1cc2c(cc1F)c(C#N)c(-c1ccc(S(=O)(=O)N[C@@H](C)C(F)(F)F)cn1)n2C1CCC1` [compound 725, 6-(3-cyano-1-cyclobutyl-5-fluoro-6-methoxy-1H-indol-2-yl)-N-[(2S)-1,1,1-trifluoropropan-2-yl]pyridine-3-sulfonamide], the IC50 is reported as less than 500 nM. In the case of `C[C@H](NS(=O)(=O)c1ccc(-c2c(C#N)c3ccc(CC(F)F)cc3n2CC2CC2)nc1)C1CC1` [compound 617, 6-[3-cyano-1-(cyclopropylmethyl)-6-(2,2-difluoroethyl)-1H-indol-2-yl]-N-[(1S)-1-cyclopropylethyl]pyridine-3-sulfonamide], the IC50 is reported as less than 500 nM. Work on `Cc1cc2c(cc1F)cc(-c1ccc(S(=O)(=O)N[C@@H](C)C(F)(F)F)cn1)n2-c1ccc(C#N)o1` [compound 1060, 6-[1-(5-cyanofuran-2-yl)-5-fluoro-6-methyl-1H-indol-2-yl]-N-[(2S)-1,1,1-trifluoropropan-2-yl]pyridine-3-sulfonamide] yielded an IC50 of 2000 to 5000 nM. `Cc1cc2c(cc1F)c(C#N)c(-c1ccc(S(=O)(=O)N[C@H](C)C(F)(F)F)cn1)n2C1CCCC1` [compound 409, 6-(3-cyano-1-cyclopentyl-5-fluoro-6-methyl-1H-indol-2-yl)-N-[(2R)-1,1,1-trifluoropropan-2-yl]pyridine-3-sulfonamide] gave an IC50 of less than 500 nM. `Cc1cc2c(cc1F)c(C(=O)O)c(-c1ccc(S(=O)(=O)NC(C)(C)C)cn1)n2C1CCC1` [compound 776, 2-[5-(tert-butylsulfamoyl)pyridin-2-yl]-1-cyclobutyl-5-fluoro-6-methyl-1H-indole-3-carboxylic acid] gave an IC50 of less than 500 nM. `N#Cc1c(-c2ccc(S(=O)(=O)NC(CF)CF)cn2)n(C2CCCC2)c2cc(O)c(F)cc12` [compound 575, 6-(3-cyano-1-cyclopentyl-5-fluoro-6-hydroxy-1H-indol-2-yl)-N-(1,3-difluoropropan-2-yl)pyridine-3-sulfonamide] was tested, and the IC50 was less than 500 nM. In the case of `CCS(=O)(=O)Nc1ccc(-c2c(C#N)c3ccc(OCC(F)(F)F)cc3n2CC2CC2)cn1` [compound 290, N-{5-[3-cyano-1-(cyclopropylmethyl)-6-(2,2,2-trifluoroethoxy)-1H-indol-2-yl]pyridin-2-yl}ethanesulfonamide], the IC50 is reported as 2000 to 5000 nM.
